This note sets out measurements from ChEMBL document CHEMBL2311411, “Lignans from Schisandra sphenathera Rehd. et Wils. and semisynthetic schisantherin A analogues: absolute configuration, and their estrogenic and anti-proliferative activity” (Eur J Med Chem, 2013).

The nature of data set [1]: Toxicity in brine shrimp larvae assessed as mortality after 24 hrs by microtiter plate analysis. The format is organism-based. To be noted: artemia salina, in vivo.
Data set [2] can be described thus: Cytotoxicity against human U87 cells after 72 hrs by MTT assay. The format is functional, cell-based, U-87MG ATCC.
In the next data set the test system is HeLa. The experiment in a line: Cytotoxicity against human HeLa cells after 72 hrs by MTT assay. The format is functional, cell-based. A general note: Formazan colour is commonly taken as a measure of viable cells.
A further data set concerns SMMC-7721. The experiment in a line: Cytotoxicity against human SMMC7721 cells after 72 hrs by MTT assay. The format is functional, cell-based. To be noted: SMMC-7721, 72 h.
Data set [3] in a line: Cytotoxicity against mouse LLC cells after 72 hrs by MTT assay. The format is functional, cell-based. To be noted: Lewis lung carcinoma.
Data set [4] deals with MCF7. The experiment in a line: Estrogenic activity in human MCF7 cells at 1 uM by luciferase reporter gene assay. The format is functional, cell-based. On the technique in general: In a reporter assay the amount or activity of a reporter protein is the signal.
The target in data set [5] is T1, DNA-binding protein inhibitor ID-1 (Homo sapiens) (UniProt P41134).
T1 sequence (whole entry): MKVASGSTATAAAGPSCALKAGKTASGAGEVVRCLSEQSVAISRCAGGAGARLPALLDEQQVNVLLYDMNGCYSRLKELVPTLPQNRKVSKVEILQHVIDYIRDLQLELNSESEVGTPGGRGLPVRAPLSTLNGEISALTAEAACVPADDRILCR
The data set can be described thus: Inhibition of ID1 in human U87 cells at 100 uM by luciferase reporter gene assay. The format is cell-based. The note with it: U-87MG ATCC.

For data set [6], the system named is MCF7. The data set can be described thus: Estrogenic activity in human MCF7 cells at 5 uM by luciferase reporter gene assay. The format is functional, cell-based.
Data set [7] relates to MCF7. The experiment in a line: Estrogenic activity in human MCF7 cells by luciferase reporter gene assay. The format is functional, cell-based.
Setting [8] is: Homo sapiens, U-87 MG, 72 h, read-out: IC50.

Calls of active or inactive are those of the source. The calls are words filed in the database; no cut-off is given here.

What is called LC50 is the concentration that kills 50% of the test population. In general, IC50 refers to the concentration that gives 50% inhibition. For `COc1cc2c(c(OC)c1OC)-c1c(cc3c(c1OC)OCO3)C[C@H](C)[C@]1(CO1)[C@H]2OC(=O)c1ccccc1` [SCHISANDRIN A1], the LC50 at 24 h in data set [1] is 97.5 µg/mL. Moreover, the IC50 in data set [2] (setting [8]) is > 100 µM; in the data set with HeLa, 50.8 µM; with SMMC-7721, > 100 µM; in data set [3] it was > 100 µM.
`COc1c2c(cc3c1-c1c(cc4c(c1OC)OCO4)C[C@H](C)[C@H](C)C3)OCO2` [SCHISANDRIN C]: the concentration for half-maximal inhibition (IC50) (in data set [2] (setting [8]); in the data set on HeLa; with SMMC-7721; in [3]) was > 100 µM throughout.
For the compound `COc1ccc([C@H]2OC[C@]3(O)[C@@H](c4ccc(OC)c(O)c4)OC[C@H]23)cc1O`, the LC50 at 24 h in data set [1] was > 100 µg/mL.
As to `COc1cc2c(c(OC)c1OC)-c1c(cc(OC)c(OC)c1OC)C[C@](C)(O)[C@@H](C)C2` [SCHIZANDRIN], the 50% lethal concentration (LC50) at 24 h in data set [1] was > 100 µg/mL. Moreover, the IC50 (in [2] (setting [8]); in the data set on HeLa; in the data set on SMMC-7721; in data set [3]) was > 100 µM each time. Also, the outcome in the data set with MCF7 [4] was Active.
A word on the inhibition: it is the relative decrease from the control value, in per cent. A higher inhibition goes with a response far below the control. `CCCC(=O)O[C@H]1c2cc(OC)c(OC)c(OC)c2-c2c(cc3c(c2OC)OCO3)C[C@H](C)[C@]1(C)O`: the inhibition in [5] was determined as 36.6%. The IC50 result in data set [2] (u-87mg atcc) is recorded as “Not Active”.
For `CCCCCCCCCCCC(=O)O[C@H]1c2cc(OC)c(OC)c(OC)c2-c2c(cc3c(c2OC)OCO3)C[C@H](C)[C@]1(C)O`, the inhibition in data set [5] worked out at 32.7%. Further, in [2] (setting [8]), the IC50 is 70 µM.
As to `CCCCCCCCCCCCCC(=O)O[C@H]1c2cc(OC)c(OC)c(OC)c2-c2c(cc3c(c2OC)OCO3)C[C@H](C)[C@]1(C)O`, the inhibition in data set [5] stood at 21.4%. Besides, the IC50 entry in [2] (u-87mg atcc) was “Not Active”.
In the same order, the values of `CCCCCCCC(=O)O[C@H]1c2cc(OC)c(OC)c(OC)c2-c2c(cc3c(c2OC)OCO3)C[C@H](C)[C@]1(C)O` are 57.6% and “Not Active”.
`CCCCCCCCCCCCCCCC(=O)O[C@H]1c2cc(OC)c(OC)c(OC)c2-c2c(cc3c(c2OC)OCO3)C[C@H](C)[C@]1(C)O` returned an inhibition in data set [5] of 4.8%. In data set [2] (u-87mg atcc), the IC50 result is reported as “Not Active”.
For the compound `COc1cc(C=O)c(-c2c(C[C@H](C)C(C)=O)cc3c(c2OC)OCO3)c(OC)c1OC`, the inhibition in [5] came to 46.1%. For the same compound, the IC50 result in data set [2] (u-87mg atcc) is given as “Not Active”.
Take `COc1cc([C@H]2OC[C@]3(O)[C@@H](c4ccc(O)c(OC)c4)OC[C@H]23)ccc1O`: the result in the data set on MCF7 [6] was Active.
On to `COc1cc([C@H]2OC[C@]3(O)[C@@H](c4ccc(O)c(OC)c4)OC[C@]23O)ccc1O`, for which, in the data set with MCF7 [6], the result was Active.
On to `CC(=O)O[C@@H]1C[C@H](O)[C@@]23CO[C@@H](O)[C@]1(C)[C@@H]2C[C@@H](O)[C@]1(C)[C@@H]3C(=O)[C@H](OC(C)=O)[C@@]2(C)[C@H](c3ccoc3)C[C@H]3O[C@]321` [TOOSENDANIN], for which the 50% lethal concentration (LC50) at 24 h in data set [1] is < 1 µg/mL.
Take `CCCCCCC(=O)O[C@H]1c2cc(OC)c(OC)c(OC)c2-c2c(cc3c(c2OC)OCO3)C[C@H](C)[C@]1(C)O`: the inhibition in data set [5] worked out at 57.8%. For the same compound, the IC50 in data set [2] (setting [8]) stood at 61.7 µM.
For the compound `C[C@]12CC[C@@H]3c4ccc(O)cc4CC[C@H]3[C@@H]1CC[C@@H]2O`, the Activity result in the data set with MCF7 [7] is “Dose-dependent effect”.
On to `CCCCC(=O)O[C@H]1c2cc(OC)c(OC)c(OC)c2-c2c(cc3c(c2OC)OCO3)C[C@H](C)[C@]1(C)O`, for which the inhibition in data set [5] was determined as 36.3%. Further, the IC50 entry in data set [2] (u-87mg atcc) is given as “Not Active”.
`CCCCCC(=O)O[C@H]1c2cc(OC)c(OC)c(OC)c2-c2c(cc3c(c2OC)OCO3)C[C@H](C)[C@]1(C)O`: the inhibition in data set [5] was determined as 63.7%. For the same compound, the IC50 in [2] (setting [8]) was 67.4 µM.
The corresponding values for `CCCCCCCCCC(=O)O[C@H]1c2cc(OC)c(OC)c(OC)c2-c2c(cc3c(c2OC)OCO3)C[C@H](C)[C@]1(C)O` are 46.9% and 58.8 µM.
As for `COc1cc2c(c(OC)c1OC)-c1c(cc3c(c1OC)OCO3)C[C@H](C)[C@](C)(O)[C@H]2O` [SCHISANTHEROL A], in [5], the inhibition is 1%. In [2] (u-87mg atcc), the IC50 result was “Not Active”.
